Experiments:
Assay type in all cases: cell-based
EGFR Del Ba/F3 cells = EGFR Del Ba/F3 cells (Homo sapiens, UniProt P00533, cells depend on it, form not given); assay: Ba/F3 cell growth inhibition (MTS assay), EGFR Del; conditions: for EGFR activity (% Control, 100 nM drug) Del: Table F
Source text: (§1) The specific cDNAs encoding the oncogenic alterations (EGFR: Del 19, L858R, L718Q, L844V, Del/T790M, L858R/T790M, Del 19/L718Q, Del 19/L844V, Del 19/T790M/L718Q and L858R/T790M/L718Q; FGFR: TEL-FGFR1, TEL-FGFR2, TEL-FGFR1 V561M, TEL-FGFR2 V561M; ALK: EML4-ALK; ROS1: CD74-ROS1) were cloned into the pDNA-Dual (BD Biosciences) vector using standard molecular biology techniques. Mutations were introduced using site-directed mutagenesis (Agilent) with mutant specific primers according to the manufacturer's instructions. All constructs were confirmed by DNA sequencing. The constructs were introduced into Ba/F3 cells using retroviral infection. Polyclonal cell lines were established by puromycin selection and subsequently cultured in the absence of interleukin-3 (IL-3). Uninfected Ba/F3 cells or cell lines expressing green fluorescent protein (GFP) were used as controls.
(§2) Growth and inhibition of growth was assessed by MTS assay. This assay, a colorimetric method for determining the number of viable cells, is based on the bioreduction of 3-(4,5-dimethylthiazol-2-yl)-5-(3-carboxymethoxyphenyl)-2-(4-sulfophenyl)-2H-tetrazolium (MTS) by cells to a formazan product that is soluble in cell culture medium, can be detected spectrophotometrically and was performed according to the manufacturer's recommended conditions. Ba/F3 cells were exposed to treatment for 72 hours and the number of cells used per experiment determined empirically to assure linear growth kinetics over that time period. All experimental points were set up in six to twelve wells and all experiments were repeated at least three times. […] The curves were fitted using a non-linear regression model with a sigmoidal dose response.

[1] = target: EGFR Del/T790M Ba/F3 cells (Homo sapiens, UniProt P00533, T790M, cells depend on it, form not given); assay: Ba/F3 cell growth inhibition (MTS assay), EGFR Del/T790M; conditions: for EGFR activity (% Control, 100 nM drug) DEL/T790M: Table F
Source text: as §1, §2

[2] = target: EGFR Del/T790M/L718Q Ba/F3 cells (Homo sapiens, UniProt P00533, L718Q/T790M, cells depend on it, form not given); conditions: 1.0 μM drug
Source text: as §1, §2

EGFR L858R Ba/F3 cells = EGFR L858R Ba/F3 cells (Homo sapiens (Human), UniProt P00533, L858R); assay: Ba/F3 cell growth inhibition (MTS assay), EGFR L858R; conditions: for EGFR activity (% Control, 100 nM drug) L858R: Table F
Source text: as §1, §2

KIF5B/Ret_V804M = assay: Ba/F3 cell growth inhibition (MTS assay), KIF5B/Ret_V804M
Protocol: as §2

[3] = target: EGFR L858R/T790M Ba/F3 cells (Homo sapiens (Human), UniProt P00533, L858R/T790M); assay: Ba/F3 cell growth inhibition (MTS assay), EGFR L858R/T790M; conditions: for EGFR activity (% Control, 100 nM drug) L858R/T790M: Table F
Source text: as §1, §2

[4] = target: EGFR L718Q/L858R Ba/F3 cells (Homo sapiens (Human), UniProt P00533, L718Q/L858R); assay: Ba/F3 cell growth inhibition (MTS assay), EGFR L858R/L718Q; conditions: for EGFR activity (% Control, 100 nM drug) L858R/L718Q: Table F
[5] = target: EGFR L858R/T790M/L718Q Ba/F3 cells (Homo sapiens (Human), UniProt P00533, L718Q/L858R/T790M); assay: Ba/F3 cell growth inhibition (MTS assay), EGFR L858R/T790M/L718Q; conditions: for EGFR activity (% Control, 100 nM drug) L858R/T790M/L718Q: Table F
Source text: as §1, §2

| SMILES | EGFR activity (% Control, 1.0 μM drug) Assay 1 Del (EGFR Del Ba/F3 cells; Assay 1) | EGFR activity (% Control, 1.0 μM drug) Assay 2 Del (EGFR Del Ba/F3 cells) | EGFR activity (% Control, 1.0 μM drug) Assay 1 Del/T790M ([1]; Assay 1) | EGFR activity (% Control, 1.0 μM drug) Assay 2 Del/T790M [1] | EGFR activity (% Control, 1.0 μM drug) Assay 1 Del/T790M/L718Q [2] | EGFR activity (% Control, 1.0 μM drug) Assay 2 Del/T790M/L718Q [2] | EGFR activity (% Control, 1.0 μM drug) Assay 1 L858R (EGFR L858R Ba/F3 cells; Assay 1) | EGFR activity (% Control, 1.0 μM drug) Assay 2 L858R (EGFR L858R Ba/F3 cells) | EGFR activity (% Control, 1.0 μM drug) Assay 1 KIF5B/Ret_V804M (KIF5B/Ret_V804M) | EGFR activity (% Control, 100 nM drug) Del (EGFR Del Ba/F3 cells) | EGFR activity (% Control, 100 nM drug) DEL/T790M [1] | EGFR activity (% Control, 100 nM drug) L858R (EGFR L858R Ba/F3 cells) | EGFR activity (% Control, 100 nM drug) L858R/T790M [3] | EGFR activity (% Control, 100 nM drug) L858R/L718Q [4] | EGFR activity (% Control, 100 nM drug) L858R/T790M/L718Q [5] | other results |
| --- | --- | --- | --- | --- | --- | --- | --- | --- | --- | --- | --- | --- | --- | --- | --- | --- |
| C=CC(=O)Nc1ccc(OC)c(N(C(=O)Nc2c(C)cccc2C)c2cc(Nc3ccc(N4CCN(CC)CC4)cc3)ncn2)c1 [Compound 8A] | 3 % Control | 72 % Control | 1 % Control | 100 % Control | 113 % Control | 93 % Control | 2 % Control | 10 % Control | 108 % Control | – | – | – | – | – | – | – |
| C=CC(=O)Nc1ccc(OC)c(Nc2cc(N(C(=O)Nc3c(C)cccc3C)c3ccc(N4CCN(CC)CC4)cc3)ncn2)c1 [Compound 9A] | 3 % Control | 4 % Control | 2 % Control | 39 % Control | 90 % Control | 86 % Control | 2 % Control | 2 % Control | 93 % Control | – | – | – | – | – | – | – |
| C=CC(=O)Nc1cccc(N(C(=O)Nc2ccccc2Cl)c2cc(Nc3ccc(N4CCN(C)CC4)cc3OC)ncn2)c1 [Compound 11A] | 3 % Control | 4 % Control | 1 % Control | 5 % Control | 84 % Control | 82 % Control | 2 % Control | 3 % Control | 103 % Control | – | – | – | – | – | – | – |
| C=CC(=O)Nc1cccc(Nc2cc(N(C)C(=O)NCc3ccccc3)ncn2)c1 [Compound 17A] | – | – | – | – | – | – | – | – | – | 28 % Control | 85 % Control | 2 % Control | 52 % Control | 81 % Control | 85 % Control | IC50 (EGFR Del Ba/F3 cells; Assay 1, Del, read-out: EGFR Ba/F3 cells IC 50 (nM) Assay 1 Del): 63.9 nM; IC50 ([1]; Assay 1, Del/T790M, read-out: EGFR Ba/F3 cells IC 50 (nM) Assay 1 Del/T790M): 682 nM; IC50 (EGFR L858R Ba/F3 cells; Assay 1, L858R, read-out: EGFR Ba/F3 cells IC 50 (nM) Assay 1 L858R): 7.62 nM; IC50 ([3]; Assay 1, L858R/T790M, read-out: EGFR Ba/F3 cells IC 50 (nM) Assay 1 L858R/T790M): 275 nM; IC50 ([4]; Assay 1, L718Q/L858R, read-out: EGFR Ba/F3 cells IC 50 (nM) Assay 1 L718Q/L858R): 1960 nM; IC50 ([5]; Assay 1, T/L/L718Q, read-out: EGFR Ba/F3 cells IC 50 (nM) Assay 1 T/L/L718Q): 2500 nM |
| C=CC(=O)Nc1ccc(OC)c(Nc2cc(N(C)C(=O)Nc3ccc(F)c(Cl)c3)ncn2)c1 [Compound 18A] | – | – | – | – | – | – | – | – | – | 30 % Control | 84 % Control | 1 % Control | 85 % Control | 88 % Control | 92 % Control | – |
